# Data published in patent US8709420B2 (GlaxoSmithKline Intellectual Property Limited, priority 2010, dated 2014).
# Values joined by “and” are separate entries in the source; they are usually repeats but may differ in a detail not shown here. Identical values can stand only once.
# Columns and labels:
# HIF-1 alpha = test: Immunohistochemistry of xenograft tumors, HIF-1 alpha; assay type: in vivo, NOD/SCID mice; settings: NB12 xenograft model
# Protocol: Formalin fixed tissues were paraffin embedded and sections cut at 7 um. […] The primary antibodies were anti-HIF-1 alpha (#NB100-131, Novus Biologicals, dilution 1:3000), HIF-2 alpha (#NB100-122, Novus Biologicals, dilution 1:100), Oct-4 (#2890S, Cell Signalling, dilution 1:100), von Willebrand factor (#A0082; DakoCytomation, Glostrup, Denmark). After the primary antibody treatment, all the slides were washed three times with PBS and incubated with broad spectrum poly-horse radish peroxidase (HRP) conjugate […] secondary antibody (87-9663, Invitrogen) for 1 h at room temperature. After washing three times with PBS, slides were stained with diaminobenzidine (DAB) and counterstained with hematoxylin. Microscopic images of six fields of high vascular density were digitally captured for vWF-stained slides, while for HIF-1 alpha, HIF-2 alpha and Oct-4 stained slides, the images of six randomly selected areas were captured. The pixel values for stained areas were quantified using ImageJ software. Tumor angiogenesis was quantified as the number of pixels of regions positive for vWF.
# [1] = system: circulating endothelial progenitor cells (CEPs); test: CEP/CEC flow cytometry in SK-N-BE(2) xenograft model; assay type: in vivo, mouse; settings: after one week treatment
# Protocol: Approximately 160 μl of mouse blood was collected in K2-EDTA tubes by saphenous vein puncture from animals of the SK-N-BE(2) xenograft model (after one week treatment) and BE(2)-c metastatic model (after one week and four weeks treatment). Blood was immediately stored at 4° C. until analysis. The CEP/CECs were measured by flow cytometry within 48 hrs of blood collection as previously described. CEPs were defined as CD45−, VEGFR-2+, CD117+, and CD13+, while CECs were defined as CD45−, VEGFR-2+, CD117−, and CD13+. The absolute number of CEPs was calculated as the percentage of events collected in CEP enumeration gates multiplied by the total white blood cell (WBC) count.
# [2] = previously reported; cited from earlier work
# HUVEC = test: In-vitro cytotoxicity, Alamar Blue cell viability; assay type: cell-based; settings: Homo sapiens, 72 h treatment, read-out: IC50, reduction in viability of HUVEC cells
# [3] = system: BE(2)-c neuroblastoma cell line; test: In-vitro cytotoxicity, Alamar Blue cell viability; assay type: cell-based; settings: Homo sapiens, topotecan alone, 72 h
# Description: (§1) SK-N-BE(2) (MYCN amplified) and SH-SY5Y (non-MYCN amplified neuroblastoma cell lines) were obtained from American Type Culture Collection (ATCC) (Manassas, Va.); BE(2)-c sub-clone of SK-N-BE(2) was obtained from Dr. Michelle Haber (Children's Cancer Institute for Medical Research, Lowry Cancer Research Centre, Randwick, Australia); Human Umbilical Vein Endothelial Cells (HUVECs) were obtained from Dr. Herman Yeger (The Hospital for Sick Children, Toronto, Ontario, Canada) and Tumor Initiating (TIC) cell lines NB12 and NB88, were obtained from Dr. David Kaplan (The Hospital for Sick Children, Toronto, Ontario, Canada). TICs NB12 and NB88 were isolated from the bone marrow metastases of relapsed high-risk neuroblastoma patients. Neuroblastoma cell lines SK-N-BE(2) and SH-SY5Y were grown in alpha-MEM containing 10% fetal bovine serum and 1% antibiotic mixture in humidified atmosphere at 37° C. with 5% CO2. NB12 and NB 88 were cultured as described previously.
# (§2) Cell viability was determined by Alamar Blue assay. Alamar blue (10% of total volume was added to each well three hours prior to fluorometric detection). Fluorometric detection was performed using the SPECTRAmax gemini Spectrophotometer at excitation wavelength of 540 nm and emission wavelength of 590 nm.
# [4] = system: NB12 tumor initiating cell line; test: In-vitro cytotoxicity, Alamar Blue cell viability; assay type: cell-based; settings: topotecan alone, 72 h
# Description: as §1, §2
# [5] = system: NB88 tumor initiating cell line; test: In-vitro cytotoxicity, Alamar Blue cell viability; assay type: cell-based; settings: topotecan alone, 72 h
# Description: as §1, §2
# KHOS xenograft = test: KHOS osteosarcoma mouse xenograft model; assay type: in vivo, NOD/SCID mice
# [6] = system: circulating endothelial cells (CECs), CEPs, WBC; test: Viable CECs, CEPs and WBC in KHOS osteosarcoma model; assay type: in vivo, NOD/SCID mice; settings: 21 days treatment
# Protocol: Procedure: Approximately 160 μl of blood was sampled in heparinized microtubes at 21st day of treatment by saphenous vein puncturing. These blood samples were stored at 4° C. until analysis. CEC/CEP measurement was done within 48 h of blood collection by flow cytometry.
# [7] = system: KHOS xenograft tumor microvasculature; test: Microvessel density by von Willebrand factor staining of KHOS xenografts; assay type: in vivo, NOD/SCID mice; settings: after 28 days treatment
# Protocol: Procedure: Formalin fixed tissues were paraffin embedded and sections cut at 7 um. […] The primary antibody was von Willebrand factor (#A0082; DakoCytomation, Glostrup, Denmark). After the primary antibody treatment, the slides were washed three times with PBS and incubated with broad spectrum poly-horse radish peroxidase (HRP) conjugate secondary antibody (87-9663, Invitrogen) for 1 h at room temperature. After washing three times with PBS, slides were stained with diaminobenzidine (DAB) and counterstained with hematoxylin. Microscopic images of six fields of high vascular density were digitally captured. The pixel values for stained areas were quantified using ImageJ software. Tumor angiogenesis was quantified as the number of pixels of regions positive for von Willebrand Factor.
smiles,measurement,setting,value
"Cc1ccc(Nc2nccc(N(C)c3ccc4c(C)n(C)nc4c3)n2)cc1S(N)(=O)=O [pazopanib, 5-[[4-[(2,3-dimethyl-2H-indazol-6-yl)methylamino]-2-pyrimidinyl]amino]-2-methylbenzenesulfonamide]",HIF-1 alpha expression,HIF-1 alpha,increase
same,mean values of CEPs compared to control,[1],statistically significant difference
same,optimal plasma concentration of pazopanib effectiveness,[2],≈ 18 μg/ml and 40 μM
CC[C@@]1(O)C(=O)OCc2c1cc1n(c2=O)Cc2cc3c(CN(C)C)c(O)ccc3nc2-1 [topotecan],IC50,HUVEC,0.00487 µg/mL
same,IC50,[3],0.0456 µg/mL
same,IC50,[4],0.0631 µg/mL
same,IC50,[5],0.0039 µg/mL
same,tumor growth rate,"KHOS xenograft; 27 days daily oral, LDM topotecan 1.0 mg/kg, combination 1.0 mg/Kg topotecan and 150 mg/Kg pazopanib",delayed the tumor growth rate
same,tumor growth rate,"KHOS xenograft; Pulse topotecan 15 mg/Kg, 27 days",delayed the tumor growth rate
same,"tumor weights, Pulse versus LDM topotecan",KHOS xenograft; after 27 days treatment,No significant differences
same,"CEP, significance versus Pulse",[6],* (* P < 0.05)
same,"WBC, significance versus Pulse",[6],* (* P < 0.05)
same,White Blood Cell (WBC) levels compared to pulse TP,[6],significantly lower
same,viable CEP levels compared to pulse TP,[6],significantly lower
same,levels of viable CECs versus control,"[6]; LDM TP 1.0 mg/kg, TP+PZ",significantly reduced
same,levels of viable CEPs versus control,"[6]; LDM TP 1.0 mg/kg, TP+PZ",significantly reduced
same,levels of viable CECs versus control,[6]; Pulse TP 15 mg/Kg,significantly reduced
same,levels of viable CEPs versus control,[6]; Pulse TP 15 mg/Kg,significantly reduced
same,"CEC, significance versus Control",[6]; Pulse topotecan 15 mg/Kg,* (* P < 0.05)
same,"CEP, significance versus Control",[6]; Pulse topotecan 15 mg/Kg,* (* P < 0.05)
same,"CEC, significance versus Control","[6]; TP (LDM 1.0 mg/kg), TP + PZ",** (** P < 0.005)
same,"CEP, significance versus Control","[6]; TP (LDM 1.0 mg/kg), TP + PZ",** (** P < 0.005)
same,"WBC, significance versus Control","[6]; TP (LDM 1.0 mg/kg), TP + PZ",* (* P < 0.05)
same,microvessel densities versus control,"[7]; LDM TP, TP+PZ",significantly lower
same,microvessel densities versus control,[7]; Pulse TP,significantly lower
